Values quoted from earlier work, collected in patent US20150050250A1, “CELL THERAPY TECHNOLOGY TO DELIVER RADIO-PROTECTIVE PEPTIDES” (UNIVERSITY OF SOUTHERN CALIFORNIA, priority 2012, published 2015).

Legend:
fibroblasts = settings: BBI peptide at 20 μM added directly to the tissue culture medium

Molecule | protection of fibroblasts from ionizing radiation (fibroblasts) | radioprotection of normal tissue in vivo (normal tissue)
CALSYPAQCFC (portion of Soybean Bowman Birk protease inhibitor) [BBI peptide] | protected fibroblasts from ionizing radiation | 
Bowman Birk protease inhibitor (protein, Soybean) DDESSKPCCDQCACTKSNPPQCRCSDMRLNSCHSACKSCICALSYPAQCFCVDITDFCYEPCKPSEDDKEN |  | selective radioprotection to normal tissue in vivo
